According to publication PMC11352945, “Anticancer Activity of Benzo[a]phenoxazine Compounds Promoting Lysosomal Dysfunction” (Cells, 2024):

Tests used:
[1] = tested on: RKO cells; experiment: Annexin V/PI assay (flow cytometry), RKO; type: cell-based, human; details: 2 × IC50 and 4 × IC50, 48 h
Experimental: (§1) RKO and MCF7 cells were seeded in 12-well plates at a density of 1 × 10^5 cells/mL. After 24 h, the cells were treated with C9, A36, and A42 at 2 × IC50 and 4 × IC50 concentrations or 0.1% DMSO (vehicle). Untreated cells were used as controls. After 48 h, floating and adherent cells were collected. The cells were resuspended in […] of binding buffer and treated for 15 min in the dark with 5 μL of Annexin V-FITC (Detection Kit-ab14085) and 5 μL of Propidium Iodide (50 μg/mL). The samples were subjected to flow cytometry analysis, PI fluorescence was detected using the ECD-A channel, and Annexin V fluorescence was detected using the FITC-A channel.
(§2) One of the main goals of clinical oncology is the development of compounds and treatments capable of selectively eliminating cancer cells. In this sense, we next evaluated the capability of the compounds to induce cell death in both cell lines. For this, we performed a flow cytometry analysis using annexin V-FITC and propidium iodide PI double staining. The conjugation of these two probes allowed for the discrimination of viable (negative for both), early apoptotic (annexin + and PI−), late apoptotic (annexin+ and PI+), and necrotic (annexin− and PI+) cells. […] Both flouting and attached cells were harvested and double stained.

[2] = tested on: RKO cells; experiment: Intracellular pH evaluation (BCECF-AM, flow cytometry), RKO; type: cell-based, human; details: 2 × IC50 and 4 × IC50, 48 h
Experimental: (§3) Evaluations of the intracellular pHs (pHi) of the RKO and MCF7 cells were performed through a flow cytometry optimized protocol using the pH-sensitive probe BCECF-AM. RKO and MCF7 cells were seeded in 12-well plates at a density of 1 × 10^5 cells/mL. After 24 h, the cells were treated with the compounds C9, A36, and A42 at 2 × IC50 and 4 × IC50 concentrations or 0.1% DMSO (vehicle). As a control, untreated cells were used. Attached and floating cells were collected, washed, and then resuspended in Hank’s balanced salt solution (HBSS) after a 48 h treatment period. After that, the cells were stained with 1 μM of BCECF-AM for 30 min at 37 °C. The samples were analyzed by flow cytometry. The FITC-A and PE-A channels were used to detect the fluorescence mean of BCECF-AM.
(§4) To further support LMP’s role in cell death induction, we investigated the effects of the compounds on intracellular pH (pHi), as LMP induction is associated with an increase in cytosolic proton levels and, as a result, a reduction in intracellular pH [67, 68, 69]. We used the dual-emission ratiometric pH-sensitive probe BCECF-AM, which emits fluorescence based on pHi. The result of acidification was shown by a decrease in the fluorescence ratio between BCECF-AM green (FITC-FL1) and red fluorescence (PE-FL2) (FL1/FL2). […]

[3] = tested on: BJ-5ta cells; experiment: Sulforhodamine B (SRB) cell viability assay, BJ-5ta; type: cell-based; details: Homo sapiens, non-neoplastic cell line, 48 h, read-out: IC50 (μM) ± SD, BJ-5ta
Experimental: (§5) The cells were allowed to adhere overnight, from 12 h to 18 h, and then treated with increasing concentrations of each compound, C9, A36, and A42 (0.125 μM, 0.25 μM, 0.5 μM, 1 μM, 2.5 μM, and 5 μM), in their respective culture mediums for 48 h. In addition to a negative control that consisted only of cells and growth medium, a negative control containing the highest concentration of the solvent in which the compound was dissolved (DMSO 0.1%) was also used. The SRB assay was performed according to Marques et al.. The IC50 values were obtained using GraphPad Prism version 8.2.1 through the application of a sigmoidal dose–response nonlinear regression, after logarithmic transformation. The selectivity index was determined by dividing the IC50 value of the non-neoplastic BJ-5ta cell line by the IC50 value of the cancer cell lines (IC50 BJ-5ta/IC50 cancer cell line); furthermore, for the CRC model, a second selectivity index was also determined using the non-neoplastic NCM460 cell line (IC50 NCM460/IC50 CRC cell line). According to the results of the selectivity index, the cell line with the highest selectivity value for each of the models, CRC and breast, was selected for subsequent characterization.
(§6) Three CRC-derived cell lines, SW480 (KRAS^G12V), HCT116 (KRAS^G13D), and RKO (BRAF^V600E), harboring somatic mutations on KRAS or BRAF, and two breast-cancer-derived cell lines, MDA-MB-231 (basal like) and MCF7 (luminal A subtype), together with two non-neoplastic cell lines, NCM460 (normal colon mucosal epithelial cell line) and BJ-5ta (normal foreskin fibroblast cell line), were used to study the activity and selectivity of the three new benzo[a]phenoxazine compounds, C9, A36, and A42. All cell lines were treated with a range of drug concentrations (0.125 μM, 0.25 μM, 0.5 μM, 1 μM, 2.5 μM, and 5 μM) for 48 h, and the effect on cell viability was assessed using a sulforhodamine B assay (SRB) (Figure 2). […] In addition, the selectivity index was determined using the BJ-5ta cell line as a reference, as well as the NCM460 cell line for the CRC model (Table 1).

[4] = tested on: MCF7 cells; experiment: Annexin V/PI assay (flow cytometry), MCF7; type: cell-based, human; details: MCF7, 2 × IC50 and 4 × IC50, 48 h
Experimental: as §1, §2

[5] = tested on: MCF7 cells; experiment: Intracellular pH evaluation (BCECF-AM, flow cytometry), MCF7; type: cell-based, human; details: MCF7, 2 × IC50 and 4 × IC50, 48 h
Experimental: as §3, §4

[6] = tested on: MCF7 cells; experiment: Wound healing assay, MCF7; type: cell-based, human; details: MCF7, IC50 and 2 × IC50, 12 h (controls approximately 12.5%)
Experimental: RKO and MCF7 cells were seeded in 12-well plates at densities of 5 × 10^5 cells/mL and 4.5 × 10^5 cells/mL, respectively. After 24 h, a wound was created by scraping the cell layer using a 1 mm pipette tip. The cells were treated with C9, A36, and A42 at IC50 and 2 × IC50 concentrations or 0.1% DMSO (vehicle). Untreated cells were used as controls. The wound regions were photographed at 0 and 12 h, and migration was assessed using the Image J software. The relative migration was calculated in relation to the untreated controls.

[7] = tested on: RKO cells; experiment: Sulforhodamine B (SRB) cell viability assay, RKO; type: cell-based; details: Homo sapiens, CRC cell line, 48 h, read-out: IC50 (μM) ± SD, RKO
Experimental: as §5, §6

[8] = tested on: SW480 cells; experiment: Sulforhodamine B (SRB) cell viability assay, SW480; type: cell-based; details: Homo sapiens, CRC cell line, 48 h, read-out: IC50 (μM) ± SD, SW480
Experimental: as §5, §6

- IC50 [8]: 0.78 ± 0.09 µM
SMILES: CCCNc1cc2oc3cc(=NCC)c(C)cc-3nc2c2ccccc12 [C9]
- Cell death induction (Annexin V/PI) [1]: most powerful compounds
- Intracellular acidification (BCECF-AM FL1/FL2 ratio) [2]: most pronounced effect
- IC50 [3]: 2.55 ± 0.15 µM
- Cell death induction (Annexin V/PI) [4]: most powerful compounds
- Intracellular acidification (BCECF-AM FL1/FL2 ratio) [5]: most pronounced effect
- Effect on cell migration (wound closure) [6]: more pronounced effect
- IC50 [7]: 0.17 ± 0.01 µM
